Assay results published in US9029359B2, “Heteroaryl Btk inhibitors” (Biogen Idec MA, Inc., priority 2009, dated 2015).

Target: T1, BTK (Homo sapiens, UniProt Q06187)
T1 construct: purchased Upstate 14-552
Test: In vitro BTK kinase assay: BTK-POLYGAT-LS ASSAY
Format: biochemical
Details: ATP 10 uM
Experimental: In vitro BTK kinase assay: BTK-POLYGAT-LS ASSAY. The purpose of the BTK in vitro assay is to determine compound potency against BTK through the measurement of IC50. […] A 24 μL aliquot of a ATP/peptide master mix (final concentration; ATP 10 μM, polyGAT 100 nM) in kinase buffer (10 mM Tris-HCl pH 7.5, 10 mM MgCl2, 200 μM Na3VO4, 5 mM DTT, 0.01% Triton X-100, and 0.2 mg/ml Casein) is added to each well. […] The assay is incubated for 30 minutes before being stopped with 28 μL of a 50 mM EDTA solution. […] The plate is covered and incubated for 45 minutes at room temperature. Time resolved fluorescence (TRF) on Molecular Devices M5 (332 nm excitation; 488 nm emission; 518 nm fluorescein emission) is measured.

T1 sequence (Q06187 whole entry): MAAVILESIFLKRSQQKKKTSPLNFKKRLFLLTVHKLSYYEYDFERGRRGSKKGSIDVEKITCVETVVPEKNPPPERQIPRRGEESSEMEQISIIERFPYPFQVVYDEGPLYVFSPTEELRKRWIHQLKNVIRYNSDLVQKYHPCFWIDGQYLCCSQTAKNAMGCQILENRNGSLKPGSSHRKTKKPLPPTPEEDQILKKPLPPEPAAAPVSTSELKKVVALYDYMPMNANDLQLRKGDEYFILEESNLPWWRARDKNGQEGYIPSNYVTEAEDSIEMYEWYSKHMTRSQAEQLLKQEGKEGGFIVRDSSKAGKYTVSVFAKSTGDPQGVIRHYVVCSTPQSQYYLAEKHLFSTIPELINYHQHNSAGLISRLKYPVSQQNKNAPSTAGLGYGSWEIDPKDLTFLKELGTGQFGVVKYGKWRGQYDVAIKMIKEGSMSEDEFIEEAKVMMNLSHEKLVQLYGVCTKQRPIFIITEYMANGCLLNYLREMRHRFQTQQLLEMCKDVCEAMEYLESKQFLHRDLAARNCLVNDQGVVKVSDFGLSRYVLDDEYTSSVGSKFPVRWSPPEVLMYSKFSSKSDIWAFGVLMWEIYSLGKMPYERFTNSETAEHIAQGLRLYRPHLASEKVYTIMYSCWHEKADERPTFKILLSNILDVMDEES

SMILES	IC50 [nM]
CC1CCCC(C)N1S(=O)(=O)c1ccccc1NCC(=O)N[C@@H]1CCCN(c2ncnc3[nH]ncc23)C1 (some centres unmarked) [Example 229]	< 100
N#Cc1c(N)ncnc1N1CCCC(NC(=O)CNc2ccccc2)C1 (centres unmarked) [Example 463]	> 10000
O=C(NC1CCCCN(c2ncnc3[nH]ncc23)C1)[C@H](Nc1cc(F)cc(Cl)c1)C1CC1 (some centres unmarked) [Example 184]	< 100
O=C(CNc1ccccc1)N(Cc1ccccc1)C1CCCN(c2ncnc3[nH]ccc23)C1 (centres unmarked) [Example 86, (N-(1-(7H-pyrrolo[2,3-d]pyrimidin-4-yl)piperidin-3-yl)-N-benzyl-2-(phenylamino)acetamide)]	1000 to 10000
CC(C)c1ccccc1N[C@@H](C(=O)N[C@@H]1CCCN(c2ncnc3[nH]ccc23)C1)C1CC1 [Example 284]	100 to 999
CS(=O)(=O)CC[C@@H](Nc1ccccc1)C(=O)N[C@@H]1CCCN(c2ncnc3[nH]ccc23)C1 [Example 116, (R)—N—((R)-1-(7H-pyrrolo[2,3-d]pyrimidin-4-yl)piperidin-3-yl)-4-(methylsulfonyl)-2-(phenylamino)butanamide]	1000 to 10000
CCN(CC)S(=O)(=O)c1ccccc1NCC(=O)N[C@@H]1CCCN(c2ncnc3[nH]ncc23)C1 [Example 195]	< 100
C[C@H]1CCN(c2ncnc3[nH]ncc23)C[C@@H]1NC(=O)CNc1ccccc1S(=O)(=O)N1CCCCC1 [Example 366]	< 100
O=C(NC1CCCN(c2ncnc3[nH]ccc23)C1)[C@@H](CCCO)Nc1ccccc1 (some centres unmarked) [Example 447]	1000 to 10000
CC(C)(O)[C@@H](Nc1cc(F)cc(Cl)c1)C(=O)N[C@@H]1CCCN(c2ncnc3[nH]ccc23)C1 [Example 296]	100 to 999
C[C@H](O)[C@@H](Nc1ccccc1)C(=O)N[C@@H]1CCCN(c2ncnc3[nH]ccc23)C1 [Example 111, (2R,3S)—N—((R)-1-(7H-pyrrolo[2,3-d]pyrimidin-4-yl)piperidin-3-yl)-3-hydroxy-2-(phenylamino)butanamide]	100 to 999
CCN(C)S(=O)(=O)c1ccccc1NCC(=O)N[C@@H]1CCCN(c2ncnc3[nH]ncc23)C1 [Example 213]	< 100
CC(C)C[C@@H](Nc1ccccc1)C(=O)N[C@@H]1CCCN(c2ncnc3[nH]ccc23)C1 [Example 105, (R)—N—((R)-1-(7H-pyrrolo[2,3-d]pyrimidin-4-yl)piperidin-3-yl)-4-methyl-2-(phenylamino)pentanamide]	1000 to 10000
C[C@@H](Nc1ccccc1)C(=O)N[C@@H]1CCCN(c2ncnc3[nH]ccc23)C1 [Example 100, (R)—N—((R)-1-(7H-pyrrolo[2,3-d]pyrimidin-4-yl)piperidin-3-yl)-2-(phenylamino)propanamide]	100 to 999
C[C@H](O)[C@@H](Nc1cc(F)cc(Cl)c1)C(=O)N[C@@H]1CCCN(c2ncnc3[nH]ccc23)C1 [Example 306]	100 to 999
CCC[C@@H](Nc1cc(Cl)cc(Cl)c1)C(=O)N[C@H]1CN(c2ncnc3[nH]ncc23)CC[C@@H]1C [Example 153]	< 100
O=C(CNc1ccccc1S(=O)(=O)c1ccc(C(F)(F)F)cc1)N[C@@H]1CCCN(c2ncnc3[nH]ncc23)C1 [Example 235]	< 100
CC1(C)CCCN(S(=O)(=O)c2ccccc2NCC(=O)N[C@@H]2CCCN(c3ncnc4[nH]ncc34)C2)C1 [Example 198]	< 100
CC[C@H](C)[C@@H](Nc1ccccc1)C(=O)N[C@@H]1CCCN(c2ncnc3[nH]ccc23)C1 [Example 115, (2R,3S)—N—((R)-1-(7H-pyrrolo[2,3-d]pyrimidin-4-yl)piperidin-3-yl)-3-methyl-2-(phenylamino)pentanamide]	100 to 999
C[C@@H](Nc1ccccc1)C(=O)NC1CCCN(c2ncnc3[nH]ccc23)C1 (stereo partly drawn) [Example 101, (2R)—N-(1-(7H-pyrrolo[2,3-d]pyrimidin-4-yl)piperidin-3-yl)-2-(phenylamino)propanamide]	100 to 999
CC(C)CC[C@@H](Nc1ccccc1)C(=O)N[C@@H]1CCCN(c2ncnc3[nH]ccc23)C1 [Example 122, (R)—N—((R)-1-(7H-pyrrolo[2,3-d]pyrimidin-4-yl)piperidin-3-yl)-5-methyl-2-(phenylamino)hexanamide]	1000 to 10000
C[C@H](O)[C@@H](Nc1cccc(Cl)c1)C(=O)N[C@@H]1CCCN(c2ncnc3[nH]ccc23)C1 [Example 233]	< 100

Continued, values first:

IC50 [nM]	SMILES
1000 to 10000	CN1CCN(S(=O)(=O)c2ccccc2NCC(=O)N[C@@H]2CCCN(c3ncnc4[nH]ccc34)C2)CC1 [Example 377]
1000 to 10000	O=C(CNc1cccc(CO)c1)N[C@@H]1CCCN(c2ncnc3[nH]ccc23)C1 [Example 394]
> 10000	O=C(CNc1cccc2c1CNC2=O)NC1CCCN(c2ncnc3[nH]ccc23)C1 (centres unmarked) [Example 54, (N-(1-(7H-pyrrolo[2,3-d]pyrimidin-4-yl)piperidin-3-yl)-2-(1-oxoisoindolin-4-ylamino)acetamide)]
1000 to 10000	O=C(CNc1cccc(-c2cnco2)c1)N[C@@H]1CCCN(c2ncnc3[nH]ccc23)C1 [Example 435]
< 100	CC(C)c1ccccc1NCC(=O)N[C@@H]1CCCN(c2ncnc3[nH]ccc23)C1 [Example 210]
100 to 999	O=C(CNc1ccc(F)cc1)N[C@@H]1CCCN(c2ncnc3[nH]ccc23)C1 [Example 413]
1000 to 10000	Cc1c(O)cccc1NCC(=O)N[C@@H]1CCCN(c2ncnc3[nH]ccc23)C1 [Example 398]
1000 to 10000	CN(C)c1cccc(NCC(=O)NC2CCCN(c3ncnc4[nH]ccc34)C2)c1 (centres unmarked) [Example 61, (N-(1-(7H-pyrrolo[2,3-d]pyrimidin-4-yl)piperidin-3-yl)-2-(3-(dimethylamino)phenylamino)acetamide)]
100 to 999	Cc1c(NCC(=O)NC2CCCN(c3ncnc4[nH]ccc34)C2)cccc1C(F)(F)F (centres unmarked) [Example 64, (N-(1-(7H-pyrrolo[2,3-d]pyrimidin-4-yl)piperidin-3-yl)-2-(2-methyl-3-(trifluoromethyl)phenylamino)acetamide)]
< 100	O=C(CNc1ccccc1S(=O)(=O)N1CCCC1)N[C@@H]1CCCN(c2ncnc3[nH]ccc23)C1 [Example 203]
> 10000	O=C(CNC1CCc2ccccc21)NC1CCCN(c2ncnc3[nH]ccc23)C1 (centres unmarked) [Example 355]
1000 to 10000	O=C(CNc1cccc(-c2nnco2)c1)N[C@@H]1CCCN(c2ncnc3[nH]ccc23)C1 [Example 390]
100 to 999	Cc1ccc(NCC(=O)NC2CCCN(c3ncnc4[nH]ccc34)C2)cc1C(F)(F)F (centres unmarked) [Example 65, (N-(1-(7H-pyrrolo[2,3-d]pyrimidin-4-yl)piperidin-3-yl)-2-(4-methyl-3-(trifluoromethyl)phenylamino)acetamide)]
100 to 999	O=C(CNc1cccc(Cl)c1Cl)NC1CCCN(c2ncnc3[nH]ccc23)C1 (centres unmarked) [Example 27, (N-(1-(7H-pyrrolo[2,3-d]pyrimidin-4-yl)piperidin-3-yl)-2-(2,3-dichlorophenylamino)acetamide)]
100 to 999	O=C(CNc1c(F)cccc1F)N[C@@H]1CCCN(c2ncnc3[nH]ccc23)C1 [Example 321]
1000 to 10000	O=C(N[C@@H]1CCCN(c2ncnc3[nH]ccc23)C1)C1(Nc2ccccc2)CCCC1 [Example 127, (R)—N-(1-(7H-pyrrolo[2,3-d]pyrimidin-4-yl)piperidin-3-yl)-1-(phenylamino)cyclopentanecarboxamide]
100 to 999	CC(C)(C)c1cccc(NCC(=O)N[C@@H]2CCCN(c3ncnc4[nH]ccc34)C2)c1 [Example 440]
< 100	O=C(CNc1cccc2c1CCC2)NC1CCCN(c2ncnc3[nH]ccc23)C1 (centres unmarked) [Example 45, (N-(1-(7H-pyrrolo[2,3-d]pyrimidin-4-yl)piperidin-3-yl)-2-(2,3-dihydro-1H-inden-4-ylamino)acetamide)]
100 to 999	Cc1ccc(C)n1-c1cccc(NCC(=O)N[C@@H]2CCCN(c3ncnc4[nH]ccc34)C2)c1 [Example 302]
1000 to 10000	O=C(CNc1cccc2ncccc12)N[C@@H]1CCCN(c2ncnc3[nH]ccc23)C1 [Example 405]
1000 to 10000	O=C(CNC(=O)c1ccccc1Cl)NC1CCCN(c2ncnc3[nH]ccc23)C1 (centres unmarked) [Example 92, (N-(2-(1-(7H-pyrrolo[2,3-d]pyrimidin-4-yl)piperidin-3-ylamino)-2-oxoethyl)-2-chlorobenzamide)]
< 100	O=C(CNc1cccc2c1OC(F)(F)O2)NC1CCCN(c2ncnc3[nH]ccc23)C1 (centres unmarked) [Example 25, (N-(1-(7H-pyrrolo[2,3-d]pyrimidin-4-yl)piperidin-3-yl)-2-(2,2-difluorobenzo[d][1,3]dioxol-4-ylamino)acetamide)]
100 to 999	O=C(CNc1ccccc1Cl)NC1CCCN(c2ncnc3[nH]ccc23)C1 (centres unmarked) [Example 20, (N-(1-(7H-pyrrolo[2,3-d]pyrimidin-4-yl)piperidin-3-yl)-2-(2-chlorophenylamino)acetamide)]
100 to 999	O=C(CNc1cccc(-n2cccn2)c1)NC1CCCN(c2ncnc3[nH]ccc23)C1 (centres unmarked) [Example 77, (2-(3-(1H-pyrazol-1-yl)phenylamino)-N-(1-(7H-pyrrolo[2,3-d]pyrimidin-4-yl)piperidin-3-yl)acetamide)]
< 100	O=C(CNc1cccc2c1CCCC2)N[C@@H]1CCCN(c2ncnc3[nH]ccc23)C1 [Example 254]
100 to 999	O=C(CNc1cccc2c1CCC2)N[C@@H]1CCCN(c2ncnc3[nH]ccc23)C1 [Example 324]
1000 to 10000	O=C(N[C@@H]1CCCN(c2ncnc3[nH]ccc23)C1)C1(Nc2ccccc2)CC1 [Example 126, (R)—N-(1-(7H-pyrrolo[2,3-d]pyrimidin-4-yl)piperidin-3-yl)-1-(phenylamino)cyclopropanecarboxamide]
1000 to 10000	Cc1cc(C)c(NCC(=O)N[C@@H]2CCCN(c3ncnc4[nH]ccc34)C2)c(C)c1 [Example 428]
